The results in this text go back to ChEMBL document CHEMBL5726647, “Isoquinoline derivatives useful as inhibitors of diacylglyceride O-acyltransferase 2” (2017).

This assay has as its target T1, Diacylglycerol O-acyltransferase 2 (Homo sapiens, UniProt Q96PD7).
T1 sequence (Q96PD7 whole entry): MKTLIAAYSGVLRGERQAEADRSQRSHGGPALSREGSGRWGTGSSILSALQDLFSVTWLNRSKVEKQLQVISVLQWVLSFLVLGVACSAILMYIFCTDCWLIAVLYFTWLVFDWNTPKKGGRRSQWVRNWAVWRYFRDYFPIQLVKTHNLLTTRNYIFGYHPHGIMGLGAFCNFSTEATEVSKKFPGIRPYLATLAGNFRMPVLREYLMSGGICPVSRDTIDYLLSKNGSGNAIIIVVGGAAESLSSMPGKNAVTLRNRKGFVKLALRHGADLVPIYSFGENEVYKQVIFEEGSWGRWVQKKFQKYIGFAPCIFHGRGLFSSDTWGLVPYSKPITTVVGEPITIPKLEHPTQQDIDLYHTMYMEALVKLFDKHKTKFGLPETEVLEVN
Nature of the assay: Enzymatic Activity Assay: DGAT2 activity was determined by measuring the amount of enzymatic product triolein (1,2,3-Tri(cis-9-octadecenoyl)glycerol) using the membrane prep mentioned above.The assay was carried out in deep well 384 plates in a final volume of 40 μL at room temperature. The assay mixture contained the following: assay buffer (100 mM Tris.Cl, pH 7.0, 20 mM MgCl2, 5% ethanol), 25 μM of diolein, 10 μM of oleoyl-CoA and 10 ng/μL of DGAT2 membrane.

A word on the IC50: it is the concentration that inhibits the measured activity by half. `COc1cccc(-c2ccc(CNC(=O)Nc3cccc(Cl)c3Cl)c3ncccc23)c1`: the IC50 is 9.02 µM.

As for `COc1cccc(-c2ccc(CNC(=O)Cc3cncc(Br)c3)c3cnccc23)c1`, the half-maximal inhibitory concentration (IC50) amounted to 7.13 µM.

Regarding `COC(=O)c1cccc(-c2ccc(CNC(=O)Nc3cccc(Cl)c3Cl)c3cnccc23)c1`, the IC50 is 1.96 µM.

`COc1cccc(-c2ccc(CNC(=O)Cc3ccccc3Cl)c3cnccc23)c1`: the IC50 came to 1.99 µM.

`COc1cccc(-c2ccc(CNC(=O)c3ncc(Br)cn3)c3cnccc23)c1`: the 50% inhibitory concentration (IC50) is 3.39 µM.

As to `CCOC(=O)CCc1ccc(CNC(=O)Nc2cccc(Cl)c2Cl)c2cnccc12`, the IC50 was 7.61 µM.

In the case of `COc1cccc(-c2ccc(CNC(=O)c3ccccc3CN3C=C(O)ON3)c3cnccc23)c1`, the IC50 was determined as 4.2 µM.
